The term IC50 denotes the concentration that gives 50% inhibition.

Test [1] concerns HT29 colon cancer. Put plainly: MTT assay, proliferation inhibition. The test is classed as cell-based. Conditions: Homo sapiens, HT-29, read-out: Proliferation inhibition rate. The text has this:
1. Cytotoxicity Assay Using Human Tumor Cell Lines
Paclitaxel was used as the positive drug.

In test [2] the test system is breast cancer cell line MCF-7. Put plainly: IC50 values on breast cancer cell line MCF-7. The test is classed as cell-based. Conditions: Homo sapiens, MCF7, 72 h, read-out: MCF-7(IC50, nM). A digest of the protocol: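 MCF-7 human breast cancer cells exposed to compounds for 72 h, with paclitaxel as positive control. IC50 from three independent repeats with replicate wells.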

`CO[C@H]1C(=O)[C@]2(C)[C@@H](OC(=O)N(C)C)C[C@H]3OC[C@@]3(OC(C)=O)[C@H]2[C@H](OC(=O)c2ccccc2)[C@]2(O)C[C@H](OC(=O)[C@H](O)[C@@H](NC(=O)OC(C)(C)C)c3ccccc3)C(C)=C1C2(C)C` [PCMI-31]: in test [1], the inhibition at 1 µM is 89.4%. Besides, the IC50 in test [2] worked out at 9.63 ± 0.12 nM.
